Measured values: article PMC5074247 (Biopharmaceutics & Drug Disposition, 2016)
Like-named read-outs stand apart in the source and are kept apart here.

Legend:
[1] = ref manufacturer's interview form; cited from earlier work
[2] = cited from earlier work
[3] = cited from earlier work; remark: listed apart in the source
[4] = format: in vivo, Sprague–Dawley rats; settings: oral 1 mg/kg [^14C]teneligliptin, SD rats
[5] = ZDF rat model; compared with sitagliptin ref 39; cited from earlier work
[6] = intravenously administered to rats at doses above 3 mg/kg ref 23; cited from earlier work
[7] = tested on: DPP‐4; settings: against DPP‐4 ref 2; cited from earlier work

## Cn1c(=O)cc(N2CCC[C@@H](N)C2)n(Cc2ccccc2C#N)c1=O [Alogliptin]
[1]
  pKa: 8.5
[2]; intravenous administration to rats ref 19
  V ss: 3.5 19 l/kg
[3]; Heart, oral 3 mg/kg, 4 h, rats ref 22
  K p of radioactivity: 2.36
[3]; Kidney, oral 3 mg/kg, 4 h, rats ref 22
  K p of radioactivity: 29.7
[3]; Liver, oral 3 mg/kg, 4 h, rats ref 22
  K p of radioactivity: 17.3
[3]; Lung, oral 3 mg/kg, 4 h, rats ref 22
  K p of radioactivity: 8.6
[3]; Pancreas, oral 3 mg/kg, 4 h, rats ref 22
  K p of radioactivity: 4.94

## O=C(C1CC(N2CCN(c3cc(CO)nn3-c3ccccc3)CC2)CN1)N1CCSC1 (stereo not shown) [M4]
[4]; kidney, 0.5, 24 and 72 h
  metabolite detection in kidney: detected in trace concentrations

## CC#CCn1c(N2CCC[C@@H](N)C2)nc2c1c(=O)n(Cc1nc(C)c3ccccc3n1)c(=O)n2C [Linagliptin, 8‐(3‐I‐aminopiperidin‐1‐yl)‐7‐but‐2‐ynyl‐3‐methyl‐1‐(4‐methyl‐quinazolin‐2‐ylmethyl)‐3,7‐dihydropurine‐2,6‐dione]
[5]
  acetylcholine‐induced vascular relaxation: significantly stronger
[2]; intravenous administration to rats ref 23
  V ss: 50.3 L/kg
[6]
  tissue distribution: non‐linear tissue distribution
[3]; Heart, oral 2 mg/kg, 4 h, rats ref 23
  K p of radioactivity: 4.78
[3]; Kidney, oral 2 mg/kg, 4 h, rats ref 23, 2 mg/kg
  K p of radioactivity: 113
[3]; Kidney, oral 2 mg/kg, 4 h, rats ref 23, listed as linagliptin, 2 mg/kg
  K p of radioactivity: around 100
[3]; Liver, oral 2 mg/kg, 4 h, rats ref 23
  K p of radioactivity: 42.3
[3]; Lung, oral 2 mg/kg, 4 h, rats ref 23
  K p of radioactivity: 11.1

## N#C[C@@H]1C[C@@H]2C[C@@H]2N1C(=O)[C@@H](N)C12CC3CC(CC(O)(C3)C1)C2 [Saxagliptin]
[1]
  pKa: 7.3
[2]; intravenous administration to rats ref 20
  V ss: 5.2 20 l/kg

## N[C@@H](CC(=O)N1CCn2c(nnc2C(F)(F)F)C1)Cc1cc(F)c(F)cc1F [Sitagliptin, (2R)‐4‐Oxo‐4‐[3‐(trifluoromethyl)‐5,6‐dihydro[1,2,4]‐triazolo[4,3‐a]pyrazin‐7(8H)‐yl]‐1‐(2,4,5‐trifluorophenyl)butan‐2‐amine]
[1]
  pKa: 7.7
[2]; intravenous administration to rats ref 25
  V ss: 8.8 25 l/kg
[3]; Heart, oral 5 mg/kg, 4 h, rats ref 25
  K p of radioactivity: 2.73
[3]; Kidney, oral 5 mg/kg, 4 h, rats ref 25
  K p of radioactivity: 14.7
[3]; Liver, oral 5 mg/kg, 4 h, rats ref 25
  K p of radioactivity: 22.0
[3]; Lung, oral 5 mg/kg, 4 h, rats ref 25
  K p of radioactivity: 9.09
[3]; Pancreas, oral 5 mg/kg, 4 h, rats ref 25
  K p of radioactivity: 5.69

## Cc1cc(N2CCN(C3CNC(C(=O)N4CC[S+]([O-])C4)C3)CC2)n(-c2ccccc2)n1 (stereo not shown) [M1]
[4]; plasma, 0.5 h
  metabolite detection in plasma: detected at low levels

## N#C[C@@H]1CCCN1C(=O)CNC12CC3CC(CC(O)(C3)C1)C2 [Vildagliptin, 1‐[[(3‐Hydroxy‐1‐adamantyl)amino]acetyl]‐2‐cyano‐(S)‐pyrrolidine]
[1]
  pKa: 7.6
[3]; Heart, oral 100 mg/kg, 4 h, rats ref 26
  K p of radioactivity: 1.48
[3]; Kidney, oral 100 mg/kg, 4 h, rats ref 26
  K p of radioactivity: 13.4
[3]; Liver, oral 100 mg/kg, 4 h, rats ref 26
  K p of radioactivity: 13.6
[3]; Lung, oral 100 mg/kg, 4 h, rats ref 26
  K p of radioactivity: 2.60
[3]; Pancreas, oral 100 mg/kg, 4 h, rats ref 26
  K p of radioactivity: 3.29

## Cc1cc2ncc(C(=O)NCC(C)(C)NCC(=O)N3CCC[C@H]3C#N)cn2n1.Cl [Anagliptin, N‐[2‐({2‐[(2S)‐2‐cyanopyrrolidin‐1‐yl]‐2‐oxoethyl}amino)‐2‐methylpropyl]‐2‐methylpyrazolo[1,5‐a]pyrimidine‐6‐carboxamide hydrochloride]
[1]
  pKa: 6.7
[2]; intravenous administration to rats ref 2
  V ss: 0.68 L/kg
[3]; Heart, oral 10 mg/kg, 6 h, rats ref 21
  K p of radioactivity: 0.74
[3]; Kidney, oral 10 mg/kg, 6 h, rats ref 21, 10 mg/kg
  K p of radioactivity: 6.71
[3]; Liver, oral 10 mg/kg, 6 h, rats ref 21
  K p of radioactivity: 4.36
[3]; Lung, oral 10 mg/kg, 6 h, rats ref 21
  K p of radioactivity: 1.50
[3]; Pancreas, oral 10 mg/kg, 6 h, rats ref 21
  K p of radioactivity: 0.81
[7]
  IC50: 3.8 nM
